The source of these data is patent US20160168155A1, “POLYMORPH OF SYK INHIBITORS” (GILEAD CONNECTICUT, INC., priority 2013, published 2016).

Series [1] can be described thus: Intrinsic dissolution rate, rotating disk apparatus. The class given is physicochemical. On the procedure:
Intrinsic dissolution rate experiments were conducted using a rotating disk apparatus. Disks of drug substance were prepared by directly compressing 100 mg of powder of polymorph Form 3 in a die at a pressure of 2500 psi for 2 minutes using a hydraulic press (Carver Press, Fred Carver, NJ, USA). The exposed surface area for the resulting disk was 0.5 cm^2. A regular USP dissolution apparatus maintained at 37±0.5° C. was used for the dissolution study. Each dissolution vessel contained 500 mL of aqueous dissolution medium of 0.05 N HCl or pH 6.8 20 mM phosphate buffer with 1% cetyltrimetrylammonium bromide (CTAB). The disk holder (die) was half-immersed into the dissolution medium and rotated at 100 rpm. Samples were withdrawn at specified time intervals and analyzed by HPLC.
The dissolution rate (J) of solid per unit surface area may be described by a diffusion model:
Where D is the diffusion coefficient of the solute, h is the diffusion layer thickness during dissolution at the surface of solid, Cs is the saturation solubility of the solid in the dissolution medium, and Cb is its concentration in the bulk medium. Under sink condition (Cs>>Cb) Equation 2 is reduced to: […]
where dissolution rate is directly proportional to the saturated solubility.

The nature of series [2]: Hygroscopicity by dynamic vapor sorption (Q5000SA), Example 6A. The settings on record: for hygroscopicity: 0 to 90% RH. It is filed as physicochemical. On the procedure: Hygroscopicity of polymorph Form 3 and polymorph Form 7 at 25° C. was determined by dynamic vapor sorption (DVS) using an automated vapor sorption balance (Q5000SA; TA instruments, New Castle, Del.). Hygroscopicity was studied as a function of relative humidity (RH) over the range of 0 to 90%. Approximately 10 mg of solid sample was placed directly onto the 13 mm quartz DVS sample cup and equilibrated at 0% relative humidity (RH) until a constant weight was achieved. After equilibration, the RH was increased in increments of 10% to reach 90%, and the water sorption was monitored. For desorption, the relative humidity was deceased in a similar manner to accomplish a full sorption/desorption cycle.
For all experiments, the instrument was operated in dm/dt mode (mass variation over time) to determine when equilibrium was reached. A fixed dm/dt value of 0.0010% min^−1 was selected for all RH segments. A maximum stage of 360 minutes and a minimum stage of 60 minutes were selected for these experiments.

The nature of series [3]: Moisture sorption isotherms (Hiden IGASorp / SMS DVS Intrinsic), Example 6B. It is filed as physicochemical. The settings on record: for water uptake up to 90% RH / hygroscopicity: 25° C.; for hygroscopicity: sorption isotherm, 0-90% RH. On the procedure:
Sorption isotherms were obtained using a Hiden IGASorp moisture sorption analyser, controlled by CFRSorp software. The sample temperature was maintained at 25° C. by a Huber re-circulating water bath. The humidity was controlled by mixing streams of dry and wet nitrogen, with a total flow rate of 250 ml/min. The relative humidity (RH) was measured by a calibrated Vaisala RH probe (dynamic range of 0-95% RH), located near the sample. The weight change, (mass relaxation) of the sample as a function of % RH was constantly monitored by the microbalance (accuracy ±0.001 mg).
10-20 mg of sample was placed in a tared mesh stainless steel basket under ambient conditions. The sample was loaded and unloaded at 40% RH and 25° C. (typical room conditions).
A moisture sorption isotherm was performed as outlined in Table 1 below (2 scans giving 1 complete cycle). The standard isotherm was performed at 25° C. at 10% RH intervals over a 0-90% RH range.
The software uses a least squares minimization procedure together with a model of the mass relaxation, to predict an asymptotic value. The measured mass relaxation value must be within 5% of that predicted by the software, before the next % RH value is selected. The minimum equilibration time was set to 1 hour and the maximum to 4 hours. Data analysis was carried out using IGASorp Systems Software v 6.50.55. The sample was recovered after completion of the isotherm and re-analyzed by XRPD.
In other cases, sorption isotherms were also obtained using a SMS DVS Intrinsic moisture sorption analyser, controlled by DVS Intrinsic Control software v1.0.1.2 (or v 1.0.1.3). The sample temperature was maintained at 25° C. by the instrument controls. The humidity was controlled by mixing streams of dry and wet nitrogen, with a total flow rate of 200 ml/min. The relative humidity was measured by a calibrated Rotronic probe (dynamic range of 1.0-100% RH), located near the sample. The weight change, (mass relaxation) of the sample as a function of % RH was constantly monitored by the microbalance (accuracy ±0.005 mg).
5-20 mg of sample was placed in a tared mesh stainless steel basket under ambient conditions. The sample was loaded and unloaded at 40% RH and 25° C. (typical room conditions). A moisture sorption isotherm was performed as outlined in Table 2 below (2 scans giving 1 complete cycle). The standard isotherm was performed at 25° C. at 10% RH intervals over a 0-90% RH range. Data analysis was carried out using Microsoft Excel using DVS Analysis Suite v6.2 (or 6.1 or 6.0). The sample was recovered after completion of the isotherm and re-analyzed by XRPD.

A short description of series [4]: PK study in pentagastrin- or famotidine-pretreated dogs, oral tablets. To be noted: famotidine-pretreated dogs, tablet.
Experimental: Pentagastrin pretreatment (6 μg/kg intramuscular injection 30 minutes prior to test formulation dosing) in fasted dogs was used to simulate fasting gastric pH in humans. Famotidine pretreatment (20 mg orally 1 hour prior to test formulation dosing) in fasted dogs was used to simulate human gastric pH when acid suppressant was co-dosed with test formulation. The tablets of the mono-MSA salt or bis-MSA salt of a compound of Formula I (conventional tablet and spray dried formulation) were orally administered followed by a 30 mL water flush.
[5] abbreviates: DVS, 25° C., listed as Polymorph Form 3.
Where [6] appears, read: DVS, 25° C., listed as Polymorph Form 7.

As for `c1cn2cc(-c3ccc4cn[nH]c4c3)nc(Nc3ccc(N4CCOCC4)cc3)c2n1` [polymorph Form 3], the “IDR higher than mono MSA” value in series [1] (pH 6.8) came out at 400 fold. The “Intrinsic dissolution rate in pH 6.8 20 mM phosphate with 1% CTAB” value in series [1] (pH 6.8, rotating disk, 37° C., 100 rpm) was 1.2 mg/min/cm^2. The hygroscopicity entry in series [2] (DVS, 25° C.) is “not observed to be hygroscopic”; in series [2] (setting [5]) it was “not observed to be hygroscopic at 70% RH and below”; in series [3] it was “not hygroscopic”; in series [3] (listed as Polymorph Form 3), “not observed to be hygroscopic at 70% RH and below”. For the same compound, the “water adsorption / weight gain at 90% RH” value in series [2] (setting [5]) is recorded as ~28%. In addition, the “solid form after DVS experiment (XRPD)” value in series [2] (sample collected at end of DVS) was “converted to Form 7”. For the same compound, the “water uptake up to 90% RH” value in series [3] (listed as Form 3) is listed as ~20 wt. %. In addition, in series [3] (sample after DVS analysis), the “solid form after DVS analysis (XRPD)” value was “converted to Form 7”. The Solubility in water in “Solubility in water” is >100 mg/mL. Further, the “final pH” value in the series “Solubility in water” (final pH of the water solubility sample) is listed as “(final pH < 1.5)”. The “increase of AUC0-24 compared to the mono-MSA salt formulation” value in series [4] is recorded as “more than 10 fold”.
Take `c1cn2cc(-c3ccc4cn[nH]c4c3)nc(Nc3ccc(N4CCOCC4)cc3)c2n1` [Free Base, Compound of Formula I]: the “Intrinsic dissolution rate in pH 1.3 0.05N HCl with 0.9% NaCl” value in series [1] (pH 1.3, rotating disk, 37° C., 100 rpm) is given as 0.00046 mg/min/cm^2. Besides, the “Intrinsic dissolution rate in pH 6.8 20 mM phosphate with 1% CTAB” value in series [1] (pH 6.8, rotating disk, 37° C., 100 rpm, listed as free base of Formula I) is listed as “no free base was detectable”. Also, the Solubility in water in the series “Solubility in water” is listed as <0.00005 mg/mL.
For the compound `c1cn2cc(-c3ccc4cn[nH]c4c3)nc(Nc3ccc(N4CCOCC4)cc3)c2n1` [polymorph Form 7], in series [2] (setting [6]), the hygroscopicity result was “highly hygroscopic” and the “water adsorption / weight gain at 90% RH” value is listed as ~22%. In addition, the “weight gain at 40% RH” value in series [2] (DVS, 25° C., 40% RH) is given as ~10%. In addition, in series [3] (listed as Polymorph Form 7), the “water uptake up to 90% RH” value is on record as ~21 wt. % and the hygroscopicity result is “highly hygroscopic”. In series [3] (below 30% RH), the “solid form below the stable RH interval” value is given as “becomes amorphous”. For the same compound, the “RH interval in which the form is stable” value in series [3] (room temperature) is recorded as 30-60 % RH.
